Data published in patent US9707233B2, “Heterocyclylamines as PI3K inhibitors” (Incyte Corporation, priority 2011, dated 2017).

Target: PI3Kδ (p110δ/p85α) (Homo sapiens (Human), UniProt O00329)
Test: PI3Kδ scintillation proximity assay (Example A3)
Assay type: biochemical
Conditions: 20 μM ATP, 20 μM PIP2, 4 nM PI3Kδ; read-out: PI3Kδ SPA IC50
Description: [γ-^33P]ATP (10 mCi/mL) was purchased from Perkin-Elmer (Waltham, Mass.). […] PI3Kδ (p110δ/p85α) was purchased from Millipore (Bedford, Mass.). ATP, MgCl2, DTT, EDTA, MOPS and CHAPS were purchased from Sigma-Aldrich (St. Louis, Mo.). Wheat Germ Agglutinin (WGA) YSi SPA Scintillation Beads was purchased from GE healthcare life sciences (Piscataway, N.J.).
The kinase reaction was conducted in polystyrene 384-well matrix white plate from Thermo Fisher Scientific in a final volume of 25 μL. Inhibitors were first diluted serially in DMSO and added to the plate wells before the addition of other reaction components. The final concentration of DMSO in the assay was 0.5%. The PI3K assays were carried out at room temperature in 20 mM MOPS, pH 6.7, 10 mM MgCl2, 5 mM DTT and CHAPS 0.03%. Reactions were initiated by the addition of ATP, the final reaction mixture consisted of 20 μM PIP2, 20 μM ATP, 0.2 μCi [γ-^33P]ATP, 4 nM PI3Kδ. […] 25 mM EDTA, 400 μM ATP. The final concentration of SPA beads was 1.0 mg/mL. After the plate sealing, plates were shaken overnight at room temperature and centrifuged at 1800 rpm for 10 minutes, the radioactivity of the product was determined by scintillation counting on Topcount (Perkin-Elmer). IC50 determination was performed by fitting the curve of percent control activity versus the log of the inhibitor concentration using the GraphPad Prism 3.0 software.

Chain of PI3Kδ (p110δ/p85α) (O00329 whole entry): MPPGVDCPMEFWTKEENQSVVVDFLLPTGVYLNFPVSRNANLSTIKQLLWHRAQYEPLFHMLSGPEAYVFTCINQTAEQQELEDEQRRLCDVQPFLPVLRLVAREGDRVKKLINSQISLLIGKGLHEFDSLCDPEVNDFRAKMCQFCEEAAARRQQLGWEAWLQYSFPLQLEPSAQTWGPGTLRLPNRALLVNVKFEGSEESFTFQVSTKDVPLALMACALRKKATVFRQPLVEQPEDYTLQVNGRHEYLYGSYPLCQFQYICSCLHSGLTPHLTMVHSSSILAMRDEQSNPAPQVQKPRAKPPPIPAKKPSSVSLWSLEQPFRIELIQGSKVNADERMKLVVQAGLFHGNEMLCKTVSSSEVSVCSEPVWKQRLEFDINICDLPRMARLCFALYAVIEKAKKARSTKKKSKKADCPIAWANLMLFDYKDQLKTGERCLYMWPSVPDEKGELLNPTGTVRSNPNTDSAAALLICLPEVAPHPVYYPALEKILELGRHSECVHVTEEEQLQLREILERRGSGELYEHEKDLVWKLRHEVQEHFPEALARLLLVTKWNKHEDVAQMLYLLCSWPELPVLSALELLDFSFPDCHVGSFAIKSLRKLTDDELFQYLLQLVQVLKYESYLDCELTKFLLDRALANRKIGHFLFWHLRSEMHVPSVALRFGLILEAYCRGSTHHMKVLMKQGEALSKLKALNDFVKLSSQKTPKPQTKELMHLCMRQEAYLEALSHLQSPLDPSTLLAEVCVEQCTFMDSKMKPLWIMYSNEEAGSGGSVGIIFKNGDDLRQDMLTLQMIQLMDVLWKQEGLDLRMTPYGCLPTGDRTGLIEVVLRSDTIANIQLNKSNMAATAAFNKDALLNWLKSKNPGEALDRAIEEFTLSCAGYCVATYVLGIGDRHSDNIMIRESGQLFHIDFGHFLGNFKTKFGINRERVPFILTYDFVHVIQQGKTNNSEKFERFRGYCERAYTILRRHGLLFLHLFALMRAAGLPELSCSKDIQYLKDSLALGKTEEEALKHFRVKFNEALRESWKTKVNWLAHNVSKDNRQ
Chain of PI3Kδ (p110δ/p85α) (P27986 whole entry partner): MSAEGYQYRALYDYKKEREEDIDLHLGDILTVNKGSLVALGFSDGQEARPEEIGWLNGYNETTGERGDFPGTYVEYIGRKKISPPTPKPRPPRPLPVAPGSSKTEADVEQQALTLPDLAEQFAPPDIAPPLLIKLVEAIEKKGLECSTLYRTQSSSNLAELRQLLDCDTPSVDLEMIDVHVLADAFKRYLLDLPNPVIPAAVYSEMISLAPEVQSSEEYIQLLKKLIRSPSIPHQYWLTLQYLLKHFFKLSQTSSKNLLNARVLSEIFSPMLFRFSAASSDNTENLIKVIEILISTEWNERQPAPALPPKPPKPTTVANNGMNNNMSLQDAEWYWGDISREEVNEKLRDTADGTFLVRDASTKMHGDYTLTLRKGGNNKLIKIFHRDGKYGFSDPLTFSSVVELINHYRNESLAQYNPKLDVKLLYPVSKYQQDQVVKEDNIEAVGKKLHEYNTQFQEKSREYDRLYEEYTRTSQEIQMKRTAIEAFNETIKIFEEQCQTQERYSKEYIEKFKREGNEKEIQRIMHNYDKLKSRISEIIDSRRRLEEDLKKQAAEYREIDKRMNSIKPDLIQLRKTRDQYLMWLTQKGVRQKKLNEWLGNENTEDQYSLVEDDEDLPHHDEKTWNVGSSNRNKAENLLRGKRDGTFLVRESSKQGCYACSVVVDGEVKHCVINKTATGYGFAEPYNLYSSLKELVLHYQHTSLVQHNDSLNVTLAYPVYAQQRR

Row | SMILES | IC50 [nM]
1 | COc1c(C(C)n2nc(C)c3c(N)ncnc32)cc(Cl)c(Cl)c1C1CN(CC#N)C1 (single isomer, unassigned) [Example 305, (3-{3-[1-(4-Amino-3-methyl-1H-pyrazolo[3,4-d]pyrimidin-1-yl)ethyl]-5,6-dichloro-2-methoxyphenyl}azetidin-1-yl)acetonitrile] | ≤ 10
2 | COc1c(C(C)n2nc(C)c3c(N)ncnc32)cc(Cl)c(Cl)c1C1CN(CCO)C1 (single isomer, unassigned) [Example 300, 2-(3-{3-[1-(4-Amino-3-methyl-1H-pyrazolo[3,4-d]pyrimidin-1-yl)ethyl]-5,6-dichloro-2-methoxyphenyl}azetidin-1-yl)ethano] | ≤ 10
3 | CCOc1c(C(C)n2nc(CC)c3c(N)ncnc32)cc(Cl)c(C)c1-c1ccc(C(=O)N(C)C)nc1 (racemic) [Example 81, 5-{3-[1-(4-Amino-3-ethyl-1H-pyrazolo[3,4-d]pyrimidin-1-yl)ethyl]-5-chloro-2-ethoxy-6-methylphenyl}-N,N-dimethylpyridine-2-carboxamide] | 50 to 200
4 | COc1c(C(C)n2nc(C)c3c(N)ncnc32)cc(Cl)c(C#N)c1C1CN(CC2CC2)C1 (single isomer, unassigned) [Example 266, 4-[1-(4-Amino-3-methyl-1H-pyrazolo[3,4-d]pyrimidin-1-yl)ethyl]-6-chloro-2-[1-(cyclopropylmethyl)azetidin-3-yl]-3-methoxybenzonitrile] | ≤ 10
5 | COc1c(C(C)n2nc(C)c3c(N)ncnc32)cc(Cl)c(C#N)c1-c1cncc(S(C)(=O)=O)c1 (single isomer, unassigned) [Example 332, 4-[1-(4-amino-3-methyl-1H-pyrazolo[3,4-d]pyrimidin-1-yl)ethyl]-6-chloro-3-methoxy-2-[5-(methylsulfonyl)pyridin-3-yl]benzonitrile] | ≤ 10
6 | CCOc1c(C(C)n2nc(C)c3c(N)ncnc32)cc(Cl)c(C#N)c1-c1cncc(C#N)c1 (single isomer, unassigned) [Example 330, 5-{3-[1-(4-amino-3-methyl-1H-pyrazolo[3,4-d]pyrimidin-1-yl)ethyl]-5-chloro-6-cyano-2-ethoxyphenyl}nicotinonitrile] | ≤ 10
7 | CCOc1c(C(C)n2nc(-c3cnc(N)nc3)c3c(N)ncnc32)cc(Cl)c(C)c1-c1ccc(C(=O)N(C)C)nc1 (racemic) [Example 58, 5-(3-{1-[4-amino-3-(2-aminopyrimidin-5-yl)-1H-pyrazolo[3,4-d]pyrimidin-1-yl]ethyl}-5-chloro-2-ethoxy-6-methylphenyl)-N,N-dimethylpyridine-2-carboxamide tris(trifluoroacetate)] | ≤ 10
8 | CCOc1c(C(C)n2nc(-c3cnn(C)c3)c3c(N)ncnc32)cc(Cl)c(C)c1-c1ccc(C(=O)N(C)C)nc1 (racemic) [Example 49, 5-(3-{1-[4-amino-3-(1-methyl-1H-pyrazol-4-yl)-1H-pyrazolo[3,4-d]pyrimidin-1-yl]ethyl}-5-chloro-2-ethoxy-6-methylphenyl)-N,N-dimethylpyridine-2-carboxamide bis(trifluoroacetate)] | ≤ 10
9 | CCOc1c(C(C)n2nc(C(F)F)c3c(N)ncnc32)cc(Cl)c(F)c1C1CN(C)C1 (racemic) [Example 151, 1-{1-[5-Chloro-2-ethoxy-4-fluoro-3-(1-methylazetidin-3-yl)phenyl]ethyl}-3-(difluoromethyl)-1H-pyrazolo[3,4-d]pyrimidin-4-amine] | ≤ 10
10 | CCOc1c(C(C)n2nc(C)c3c(N)ncnc32)cc(Cl)c(F)c1C1COC(=O)N1 (single isomer, unassigned) [Example 354, 4-{3-[1-(4-amino-3-methyl-1H-pyrazolo[3,4-d]pyrimidin-1-yl)ethyl]-5-chloro-2-ethoxy-6-fluorophenyl}-1,3-oxazolidin-2-one] | ≤ 10
11 | CCC(=O)N1CC(c2c(C#N)c(Cl)cc(C(C)n3nc(C)c4c(N)ncnc43)c2OC)C1 (single isomer, unassigned) [Example 282, 4-[1-(4-Amino-3-methyl-1H-pyrazolo[3,4-d]pyrimidin-1-yl)ethyl]-6-chloro-3-methoxy-2-(1-propionylazetidin-3-yl)benzonitrile] | ≤ 10
